Data reported in PubChem BioAssay (NCI).
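96-well plates; 48 h exposure; 5 concentrations. Endpoints by linear interpolation between flanking doses. Not reached: highest tested concentration assigned. GI50 marks 50% less growth. TGI: concentration producing complete growth inhibition.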

What was measured:
Experiment in all cases: NCI anticancer screen, dose series, 48 h
[1] = system: HOP-92 NSCLC
[2] = system: IGROV1 ovarian
[3] = system: NCI-H226 lung
[4] = system: NCI-H23 lung
[5] = system: NCI-H460 lung
[6] = system: SK-MEL-2 melanoma
[7] = system: UACC-257 melanoma
[8] = system: HT29 colon
[9] = system: MOLT-4 leukemia

Structure (SMILES): Cc1ccc2sc3c(NCCCN)nc4ccccc4c3c(=O)c2c1
- GI50 [1]: 1440 nM
- TGI [1]: 4.65 µM
- GI50 [2]: 1610 nM
- TGI [2]: 3.26 µM
- GI50 [3]: 1840 nM
- TGI [3]: 3.66 µM
- GI50 [4]: 1820 nM
- TGI [4]: 3.37 µM
- GI50 [5]: 1840 nM
- TGI [5]: 3.56 µM
- GI50 [6]: 2180 nM
- TGI [6]: 4.66 µM
- GI50 [7]: 2040 nM
- TGI [7]: 4.21 µM

Structure (SMILES): O=C(O)C(Cc1ccccc1)Cc1ccccc1
- TGI [8]: > 100 µM
- TGI [2]: > 100 µM
- TGI [9]: > 100 µM
- TGI [3]: > 100 µM
- TGI [4]: > 100 µM
- TGI [5]: > 100 µM
- TGI [6]: > 100 µM
- TGI [7]: > 100 µM

Structure (SMILES): Cc1ccc(/C=c2\c(=O)[nH]c3nc4ccccc4c(=O)n23)cc1
- TGI [1]: > 100 µM
- TGI [9]: > 100 µM
- TGI [4]: > 100 µM
- TGI [6]: > 100 µM
- TGI [7]: > 100 µM

Structure (SMILES): NS(=O)(=O)c1nnc(NS(=O)(=O)c2cccc3cccnc23)s1
- TGI [1]: > 100 µM
- TGI [9]: > 100 µM
- TGI [3]: > 100 µM
- TGI [4]: > 100 µM
- TGI [5]: > 100 µM
- TGI [6]: > 100 µM
- TGI [7]: > 100 µM

Structure (SMILES): CCn1c(CCCc2nc3c([nH]2)c(=O)n(C)c(=O)n3C)nc2c1c(=O)n(C)c(=O)n2C
- TGI [8]: > 100 µM
- TGI [2]: > 100 µM
- TGI [9]: > 100 µM
- TGI [3]: 30.6 µM
- TGI [4]: > 100 µM
- TGI [5]: > 100 µM
- TGI [7]: > 100 µM

Structure (SMILES): CCOC(=O)c1nc2ccccc2nc1Nc1ccc(C(=O)OC)s1
- TGI [1]: > 100 µM
- TGI [8]: > 100 µM
- TGI [2]: > 100 µM
- TGI [9]: > 100 µM
- TGI [4]: > 100 µM
- TGI [5]: > 100 µM
- TGI [6]: > 100 µM
- TGI [7]: > 100 µM

Structure (SMILES): [N-]=[N+]=Nc1cc(=O)[nH]c2ccccc12
- TGI [1]: > 100 µM
- TGI [8]: > 100 µM
- TGI [2]: > 100 µM
- TGI [9]: > 100 µM
- TGI [3]: > 100 µM
- TGI [4]: > 100 µM
- TGI [6]: > 100 µM
- TGI [7]: > 100 µM

Structure (SMILES): Cc1cc(N(CCC#N)CCC#N)ccc1/C(N=Nc1ccc(C(=O)O)cc1)=N\NC(=O)c1ccccc1
- TGI [8]: 41.2 µM
- TGI [2]: > 100 µM
- TGI [9]: > 100 µM
- TGI [3]: > 100 µM
- TGI [4]: > 100 µM
- TGI [5]: > 100 µM
- TGI [6]: > 100 µM
- TGI [7]: > 100 µM

Structure (SMILES): CN(C)C(=O)N1N[C@H](c2ccccc2)[C@@H]1c1ccccc1
- TGI [1]: > 100 µM
- TGI [2]: > 100 µM
- TGI [9]: > 100 µM
- TGI [3]: > 100 µM
- TGI [4]: > 100 µM
- TGI [6]: > 100 µM
- TGI [7]: > 100 µM

Structure (SMILES): Cc1nc(N)c(N2CCN(S(=O)(=O)N(Cc3ccccc3)Cc3ccccc3)CC2)c(=O)[nH]1
- TGI [8]: 63.3 µM
- TGI [9]: > 100 µM
- TGI [3]: > 100 µM
- TGI [4]: 47.8 µM
- TGI [5]: > 100 µM
- TGI [6]: > 100 µM
- TGI [7]: 61.5 µM

Structure (SMILES): COC(=O)/C=C1\C(CO[Si](C)(C)C(C)(C)C)OC(n2cc(C)c(=O)n(C)c2=O)C1O[Si](C)(C)C(C)(C)C (configuration not stated)
- TGI [1]: > 100 µM
- TGI [8]: > 100 µM
- TGI [2]: > 100 µM
- TGI [9]: > 100 µM
- TGI [3]: > 100 µM
- TGI [4]: > 100 µM
- TGI [6]: > 100 µM

Structure (SMILES): Oc1ccc(-c2nc3cc(C(F)(F)F)ccc3s2)cc1
- TGI [8]: 35.9 µM
- TGI [2]: 23.8 µM
- TGI [9]: 87.5 µM
- TGI [3]: 32.6 µM
- TGI [4]: 30.5 µM
- TGI [5]: 30.1 µM
- TGI [6]: 30.1 µM
- TGI [7]: 32.2 µM

Structure (SMILES): COc1cc2c3c(n(C)c(=O)c2cc1OC)-c1cc2c(cc1/C3=C\CCCCl)OCO2
- TGI [1]: > 100 µM
- TGI [8]: > 100 µM
- TGI [2]: > 100 µM
- TGI [9]: 43.2 µM
- TGI [4]: 40.9 µM
- TGI [5]: > 100 µM
- TGI [6]: 98.9 µM
- TGI [7]: > 100 µM
